ChEMBL document CHEMBL1240444, “Aconitum and Delphinium alkaloids of curare-like activity. QSAR analysis and molecular docking of alkaloids into AChBP” (Eur J Med Chem, 2010)

What was measured:
[1] = Selectivity ratio of binding affinity for alpha7 nAChR to alpha3beta2
[2] = Selectivity ratio of binding affinity for alpha7 nAChR to alpha4beta2 nAChR
[3] = Selectivity ratio of binding affinity for alpha7 nAChR to muscle nAChR; assay type: tissue-based; conditions: Muscle tissue

CCN1C[C@]2(COC(=O)c3ccccc3N3C(=O)C[C@H](C)C3=O)CC[C@H](OC)[C@@]34[C@@H]5C[C@H]6[C@H](OC)[C@@H]5[C@](O)(C[C@@H]6OC)[C@](O)([C@@H](OC)[C@H]23)[C@@H]14
Ratio [1]: 100 | Ratio [2]: 1000 | Ratio [3]: 10000
